{"source": "patent US20030157176A1", "about": "“Antimicrobially treated material and methods of preventing coloring thereof” (priority 2001, published 2003)", "test": "Silver ion concentration ranges in the water system", "conditions": "dissociated in water system", "text": "A basic idea of the present invention for preventing coloring of silver zeolite is to make an purposeful use of the concentration rages of silver ions dissociated from silver zeolite in water system, i.e., a concentration range A which is effective for antimicrobial action and a concentration range B which is responsible for coloring.\nNamely, the concentration range A which is effective for antimicrobial action is more than 1 ppm that is the antimicrobially effective concentration of silver ions while the concentration range B which is responsible for coloring is 40 ppm or more, so that a concentration range C for silver ions dissociated in the water system, which is effective for antimicrobial action without causing coloring, exists between 1 ppm and 40 ppm (preferably between 5 ppm and 30 ppm).\nThe concentration range of silver ions dissociated from 1000 ppm silver zeolite in the water system varies from 40 ppm to 600 ppm. This variation is probably due to a decrease in the silver ion concentration caused by generation of silver oxide or adsorption of silver ions in the water system, or is under the influence of the degree of dissociation of silver ions by metal salts, surfactants, and temperature. […]"}
{"substance": "silver ions", "values": [{"measurement": "antimicrobially effective concentration of silver ions (range A)", "result": "more than 1 ppm"}, {"measurement": "silver ion concentration responsible for coloring (range B)", "result": "≥ 40", "unit": "ppm"}]}
